The structures appear in SMILES notation. Calls of active or inactive are those of the source. The rule behind the calls is not given here. Where only a bound is given, the exact number is not on record here.

The subject of test [1] is L02. Put plainly: Hepatoprotective activity in Homo sapiens (human) LO2 cells assessed as reversal of CCl4-induced decrease in GSH-Px activity at 50 mM treated prior to CCl4 addition measured after 24 hr (CCl4 Rvb = 49 +/-3.8%). The format is functional. Set-up: scale not given: the % may be the effect or the level left.
For test [2], the system named is L02. Kind of test: Hepatoprotective activity in Homo sapiens (human) LO2 cells assessed as reversal of CCl4-induced decrease in GSH-Px activity at […] treated prior to CCl4 addition measured after 24 hr (CCl4 Rvb = 49 +/-3.8%). The format is functional. Further details: scale not given: the % may be the effect or the level left.
The test system of test [3] is L02. Kind of test: Hepatoprotective activity in Homo sapiens (human) LO2 cells assessed as reversal of CCl4-induced decrease in GSH-Px activity at 10 mM treated prior to CCl4 addition measured after 24 hr (CCl4 Rvb = 49 +/-3.8%). Further details: scale not given: the % may be the effect or the level left. The format is functional.
The subject of test [4] is L02. Put plainly: Hepatoprotective activity in Homo sapiens (human) LO2 cells assessed as reversal of CCl4-induced decrease in GSH-Px activity at 1 mM treated prior to CCl4 addition measured after 24 hr (CCl4 Rvb = 49 +/-3.8%). The class given is functional. Set-up: scale not given: the % may be the effect or the level left.
Test [5] concerns L02. Put plainly: Hepatoprotective activity in Homo sapiens (human) LO2 cells assessed as reversal of CCl4-induced increase in malondialdehyde level at 50 mM treated prior to CCl4 addition measured after 24 hr (CCl4 Rvb = 170 +/-4.3%). The class given is functional.
Test [6] deals with L02. Put plainly: Hepatoprotective activity in Homo sapiens (human) LO2 cells assessed as reversal of CCl4-induced increase in malondialdehyde level at […] treated prior to CCl4 addition measured after 24 hr (CCl4 Rvb = 170 +/-4.3%). The class given is functional.
Test [7] concerns L02. Put plainly: Hepatoprotective activity in Homo sapiens (human) LO2 cells assessed as reversal of CCl4-induced increase in malondialdehyde level at 10 mM treated prior to CCl4 addition measured after 24 hr (CCl4 Rvb = 170 +/-4.3%). The class given is functional.
Test [8] has as its system L02. Kind of test: Hepatoprotective activity in Homo sapiens (human) LO2 cells assessed as reversal of CCl4-induced increase in malondialdehyde level at 1 mM treated prior to CCl4 addition measured after 24 hr (CCl4 Rvb = 170 +/-4.3%). The format is functional.
Test [9] has as its system L02. Kind of test: Hepatoprotective activity in Homo sapiens (human) LO2 cells assessed as reversal of CCl4-induced decrease in superoxide dismutase activity at […] treated prior to CCl4 addition measured after 24 hr by xanthine/xanthine oxidase assay (CCl4 Rvb = 47 +/-4.4%). The format is functional. Further details: scale not given: the % may be the effect or the level left.

For test [10], the system named is L02. Kind of test: Hepatoprotective activity in Homo sapiens (human) LO2 cells assessed as reversal of CCl4-induced decrease in superoxide dismutase activity at 50 mM treated prior to CCl4 addition measured after 24 hr by xanthine/xanthine oxidase assay (CCl4 Rvb = 47 +/-4.4%). The format is functional. Set-up: scale not given: the % may be the effect or the level left.

Test [11] deals with L02. Kind of test: Hepatoprotective activity in Homo sapiens (human) LO2 cells assessed as reversal of CCl4-induced decrease in superoxide dismutase activity at 1 mM treated prior to CCl4 addition measured after 24 hr by xanthine/xanthine oxidase assay (CCl4 Rvb = 47 +/-4.4%). The format is functional. Further details: scale not given: the % may be the effect or the level left.

Test [12] relates to L02. Put plainly: Hepatoprotective activity in Homo sapiens (human) LO2 cells assessed as reversal of CCl4-induced decrease in superoxide dismutase activity at 10 mM treated prior to CCl4 addition measured after 24 hr by xanthine/xanthine oxidase assay (CCl4 Rvb = 47 +/-4.4%). The class given is functional. Further details: scale not given: the % may be the effect or the level left.

Test [13] relates to L02. Put plainly: Hepatoprotective activity in Homo sapiens (human) LO2 cells assessed as protection against CCl4-induced cytotoxicity at […] treated prior to CCl4 addition measured after 24 hr by MTT assay. The format is functional, cell-based. For orientation: Tetrazolium assays rely on reduction of a dye to a coloured formazan, in cell work by metabolically active cells.

The subject of test [14] is L02. Kind of test: Hepatoprotective activity in Homo sapiens (human) LO2 cells assessed as protection against CCl4-induced cytotoxicity at 50 to […] treated prior to CCl4 addition measured after 24 hr by MTT assay. The format is functional, cell-based.
The test system of test [15] is L02. Put plainly: Hepatoprotective activity in Homo sapiens (human) LO2 cells assessed as protection against CCl4-induced cytotoxicity at 10 to […] treated prior to CCl4 addition measured after 24 hr by MTT assay. The format is functional, cell-based.
The nature of test [16]: Antioxidant activity assessed as decrease in initial DPPH concentration after 30 min by MicroELISA reader analysis. The class given is functional. On the technique in general: DPPH is a stable violet radical that fades when it is reduced.

For `OC[C@H]1O[C@@H](OCCc2ccc(O)cc2)[C@H](O)[C@@H](O)[C@@H]1O` [SALIDROSIDE], the Activity stood at 56% in [1]; 61% in test [2]; 53% in test [3]; 51% in [4]; 162% in [5]; 157% in [6]. The Activity is reported as 165% in [7]; 168% in test [8]; 61% in [9]; 56% in test [10]; 49% in test [11]; 52% in test [12]. Further, the outcome in test [13], in test [14] and in [15] was Active.
With `OC[C@H]1O[C@@H](OCCc2cc(O)c(O)c(O)c2)[C@H](O)[C@@H](O)[C@@H]1O`, the Activity in [1] is on record as 71%; in test [2] it was 80%; in [3] it was 57%; in test [4], 54%; in [5] it was 128%; in test [6], 117%. For the same molecule, the Activity in [7] was 151%; in test [8], 167%; in test [9] it was 83%; in test [10], 70%; in [11], 50%; in test [12] it was 55%. Further, the result in test [13], in test [14] and in test [15] was Active. Also, the IC50 in [16] worked out at 38.1 µM.
For `COc1cc(CCO[C@@H]2O[C@H](CO)[C@H](O)[C@H](O)[C@H]2O)ccc1O`, the IC50 in test [16] is 40.8 µM.
On to `OC[C@H]1O[C@@H](OCCc2cc(O)c(O)c(O)c2)[C@H](O)[C@@H](O)[C@H]1O`, for which the Activity turned out to be 78% in test [1]; 86% in test [2]; 64% in test [3]; 55% in test [4]; 119% in test [5]; 110% in [6]. Moreover, the Activity was 141% in [7]; 164% in test [8]; 89% in test [9]; 76% in test [10]; 54% in [11]; 65% in [12]. Moreover, the result in [13], in [14] and in test [15] was Active. Also, in test [16], the half-inhibitory concentration (IC50) worked out at 35.9 µM.
As for `OC[C@H]1O[C@@H](OCCc2cc(Br)c(O)c(Br)c2)[C@H](O)[C@@H](O)[C@H]1O`, the IC50 in test [16] was over 100 µM.
On the same count and under the same terms, next, `CCOc1cc(CCO[C@@H]2O[C@H](CO)[C@H](O)[C@H](O)[C@H]2O)ccc1O`: 87.5 µM; `OC[C@H]1O[C@@H](OCCc2ccc(O)c(Br)c2)[C@H](O)[C@@H](O)[C@@H]1O`: over 100 µM; `OC[C@H]1O[C@@H](OCCc2ccc(O)c(Br)c2)[C@H](O)[C@@H](O)[C@H]1O`: over 100 µM.
Take `CCOc1cc(CCO[C@@H]2O[C@H](CO)[C@@H](O)[C@H](O)[C@H]2O)ccc1O`: in [16], the IC50 is 66.8 µM.
Take `COc1cc(CCO[C@@H]2O[C@H](CO)[C@@H](O)[C@H](O)[C@H]2O)cc(OC)c1O`: the IC50 in [16] came out at 61.6 µM.
Take `COc1cc(CCO[C@@H]2O[C@H](CO)[C@H](O)[C@H](O)[C@H]2O)cc(OC)c1O`: the IC50 in test [16] was 70.1 µM.
In the case of `O=C1O[C@H]([C@@H](O)CO)C(O)=C1O` [ASCORBIC ACID], the IC50 in test [16] amounted to 54.6 µM.
Still for that read-out and setting: next, `OC[C@H]1O[C@@H](OCCc2cc(Br)c(O)c(Br)c2)[C@H](O)[C@@H](O)[C@@H]1O`: over 100 µM; `COc1cc(CCO[C@@H]2O[C@H](CO)[C@@H](O)[C@H](O)[C@H]2O)ccc1O`: 59.8 µM.

In general, IC50 refers to the midpoint of a concentration-inhibition curve.

(Values after ChEMBL document CHEMBL3044980, “Free radical scavenging and hepatoprotective effects of salidroside analogs on CCl4-induced cytotoxicity in LO2 cells” (Med Chem Res, 2013).)
